Values quoted from earlier work in patent US9745567B2, “Compositions and methods for treating multiple sclerosis” (REVALESIO CORPORATION, priority 2008, dated 2017).
Where a name gives a salt, the structure may show the parent alone. Read-outs that look alike come from different tables or passages of the source.

Legend:
MMP-3 [1] = target: T1, MMP-3 (Homo sapiens, UniProt P08254)
Target sequence in this assay (P08254 100-477, species assumed): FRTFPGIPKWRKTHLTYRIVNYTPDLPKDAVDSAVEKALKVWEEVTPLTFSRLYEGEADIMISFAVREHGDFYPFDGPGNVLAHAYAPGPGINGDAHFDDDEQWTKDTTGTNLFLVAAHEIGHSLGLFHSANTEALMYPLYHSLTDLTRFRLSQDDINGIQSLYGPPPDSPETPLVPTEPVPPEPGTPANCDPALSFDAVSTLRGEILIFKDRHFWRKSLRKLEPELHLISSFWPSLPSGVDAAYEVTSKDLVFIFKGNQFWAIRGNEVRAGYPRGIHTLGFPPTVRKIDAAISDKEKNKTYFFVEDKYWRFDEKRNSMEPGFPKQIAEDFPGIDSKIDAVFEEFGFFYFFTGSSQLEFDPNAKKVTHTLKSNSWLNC

MMP-1 = target: T2, MMP-1 (Homo sapiens, UniProt P03956)
T2 sequence (P03956 100-469): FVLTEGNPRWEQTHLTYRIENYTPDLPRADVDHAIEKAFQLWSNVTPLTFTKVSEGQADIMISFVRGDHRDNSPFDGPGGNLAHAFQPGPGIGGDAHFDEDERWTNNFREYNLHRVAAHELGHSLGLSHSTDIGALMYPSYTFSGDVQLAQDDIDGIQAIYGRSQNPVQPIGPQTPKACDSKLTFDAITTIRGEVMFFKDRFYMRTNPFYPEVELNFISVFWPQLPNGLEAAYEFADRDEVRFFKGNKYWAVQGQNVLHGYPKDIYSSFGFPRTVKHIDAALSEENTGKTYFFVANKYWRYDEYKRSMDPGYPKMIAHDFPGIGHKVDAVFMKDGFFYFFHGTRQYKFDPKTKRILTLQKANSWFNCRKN

MMP-8 = MMP-8 (Homo sapiens, UniProt P22894)
Sequence of MMP-8 (P22894 101-467, species assumed): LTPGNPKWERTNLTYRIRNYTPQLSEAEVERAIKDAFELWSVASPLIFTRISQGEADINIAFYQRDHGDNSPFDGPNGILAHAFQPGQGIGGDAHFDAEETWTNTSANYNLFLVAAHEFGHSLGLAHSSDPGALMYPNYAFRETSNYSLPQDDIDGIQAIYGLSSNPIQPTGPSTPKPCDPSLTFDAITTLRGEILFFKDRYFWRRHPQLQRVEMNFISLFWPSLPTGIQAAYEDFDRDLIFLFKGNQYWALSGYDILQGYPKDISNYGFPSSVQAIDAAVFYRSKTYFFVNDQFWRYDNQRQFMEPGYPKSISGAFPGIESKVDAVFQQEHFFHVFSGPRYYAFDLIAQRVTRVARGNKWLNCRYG

MMP-9 = MMP-9 (Homo sapiens, UniProt P14780)
Sequence of MMP-9 (P14780 94-707, species assumed): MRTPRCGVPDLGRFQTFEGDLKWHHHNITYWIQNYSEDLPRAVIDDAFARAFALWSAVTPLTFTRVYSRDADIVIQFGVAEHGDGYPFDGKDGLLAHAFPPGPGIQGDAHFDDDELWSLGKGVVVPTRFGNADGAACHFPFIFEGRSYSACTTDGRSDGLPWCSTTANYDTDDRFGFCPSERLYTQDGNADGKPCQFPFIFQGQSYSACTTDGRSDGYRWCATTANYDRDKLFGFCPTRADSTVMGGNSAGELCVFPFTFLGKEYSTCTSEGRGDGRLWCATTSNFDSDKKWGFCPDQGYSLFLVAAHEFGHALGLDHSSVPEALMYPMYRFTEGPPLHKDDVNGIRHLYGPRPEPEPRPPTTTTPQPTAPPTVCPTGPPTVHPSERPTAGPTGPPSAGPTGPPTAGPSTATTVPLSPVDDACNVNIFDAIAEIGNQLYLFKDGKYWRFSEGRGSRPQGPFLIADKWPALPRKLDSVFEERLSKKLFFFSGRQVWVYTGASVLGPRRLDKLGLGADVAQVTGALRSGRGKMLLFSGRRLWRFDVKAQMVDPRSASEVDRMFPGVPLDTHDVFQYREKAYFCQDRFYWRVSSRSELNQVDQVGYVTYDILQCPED

TACE = TACE (Homo sapiens, UniProt P78536)
Sequence of TACE (P78536 215-824): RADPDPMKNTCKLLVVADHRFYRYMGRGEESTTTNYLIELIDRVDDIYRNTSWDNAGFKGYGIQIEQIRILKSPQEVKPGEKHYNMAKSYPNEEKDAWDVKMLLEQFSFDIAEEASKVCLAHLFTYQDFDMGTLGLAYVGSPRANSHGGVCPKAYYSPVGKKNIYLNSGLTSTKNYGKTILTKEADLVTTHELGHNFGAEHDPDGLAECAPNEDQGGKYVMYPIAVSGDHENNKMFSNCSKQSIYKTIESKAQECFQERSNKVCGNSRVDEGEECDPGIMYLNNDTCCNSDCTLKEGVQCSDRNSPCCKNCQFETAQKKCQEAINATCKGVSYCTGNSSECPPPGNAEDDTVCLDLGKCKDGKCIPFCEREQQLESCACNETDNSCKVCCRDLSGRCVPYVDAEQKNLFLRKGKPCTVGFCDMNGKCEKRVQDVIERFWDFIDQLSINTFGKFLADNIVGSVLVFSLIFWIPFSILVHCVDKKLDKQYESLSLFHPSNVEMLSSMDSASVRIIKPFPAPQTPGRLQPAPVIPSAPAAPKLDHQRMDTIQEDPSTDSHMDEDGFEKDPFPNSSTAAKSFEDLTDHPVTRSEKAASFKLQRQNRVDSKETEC

MMP-13 = MMP-13 (Homo sapiens, UniProt P45452)
MMP-2 = target: T3, MMP-2 (Homo sapiens, UniProt P08253)
T3 sequence (P08253 110-660): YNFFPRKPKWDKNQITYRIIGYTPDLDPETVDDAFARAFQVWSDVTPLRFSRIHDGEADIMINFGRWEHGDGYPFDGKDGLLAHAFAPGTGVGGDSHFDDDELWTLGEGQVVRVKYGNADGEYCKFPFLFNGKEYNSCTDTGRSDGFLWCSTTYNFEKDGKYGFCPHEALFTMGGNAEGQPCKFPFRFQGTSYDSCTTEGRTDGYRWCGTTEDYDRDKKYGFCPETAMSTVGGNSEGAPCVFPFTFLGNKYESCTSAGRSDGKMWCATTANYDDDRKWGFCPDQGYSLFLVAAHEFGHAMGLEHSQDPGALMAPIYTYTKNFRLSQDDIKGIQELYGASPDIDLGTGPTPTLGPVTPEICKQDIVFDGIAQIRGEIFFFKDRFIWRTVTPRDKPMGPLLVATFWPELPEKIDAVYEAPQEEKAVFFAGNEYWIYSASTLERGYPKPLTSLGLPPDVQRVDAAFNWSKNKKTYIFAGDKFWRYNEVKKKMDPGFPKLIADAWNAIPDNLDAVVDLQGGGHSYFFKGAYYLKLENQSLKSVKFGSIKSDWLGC

MMP-7 = target: T4, MMP-7 (Homo sapiens, UniProt P09237)
T4 sequence (P09237 95-267): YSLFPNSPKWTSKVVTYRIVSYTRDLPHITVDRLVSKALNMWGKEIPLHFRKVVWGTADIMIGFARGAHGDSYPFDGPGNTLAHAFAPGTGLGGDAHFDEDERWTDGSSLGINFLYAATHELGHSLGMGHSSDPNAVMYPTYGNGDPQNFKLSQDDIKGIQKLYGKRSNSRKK

MMP-3 [2] = target: T1, MMP-3; settings: for Ki values, human MMP-3 catalytic domain: competitive inhibitor
Target sequence in this assay (P08254 100-477): as the sequence (P08254 100-477, species assumed) above

[3] = target: T5, rabbit MMP-3 catalytic domains (Oryctolagus cuniculus, UniProt P28863); settings: competitive inhibitor
T5 construct: rabbit MMP-3 catalytic domains
T5 sequence (P28863 101-273 limits assumed): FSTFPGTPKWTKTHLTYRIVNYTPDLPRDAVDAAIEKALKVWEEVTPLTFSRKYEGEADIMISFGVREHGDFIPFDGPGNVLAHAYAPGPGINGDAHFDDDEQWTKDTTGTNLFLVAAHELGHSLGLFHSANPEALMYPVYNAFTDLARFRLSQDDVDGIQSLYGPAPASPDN

[4] = target: murine macrophage metalloelastase (MME/MMP-12) (Mus musculus, UniProt P34960)
Sequence of murine macrophage metalloelastase (MME/MMP-12) (P34960 110-473): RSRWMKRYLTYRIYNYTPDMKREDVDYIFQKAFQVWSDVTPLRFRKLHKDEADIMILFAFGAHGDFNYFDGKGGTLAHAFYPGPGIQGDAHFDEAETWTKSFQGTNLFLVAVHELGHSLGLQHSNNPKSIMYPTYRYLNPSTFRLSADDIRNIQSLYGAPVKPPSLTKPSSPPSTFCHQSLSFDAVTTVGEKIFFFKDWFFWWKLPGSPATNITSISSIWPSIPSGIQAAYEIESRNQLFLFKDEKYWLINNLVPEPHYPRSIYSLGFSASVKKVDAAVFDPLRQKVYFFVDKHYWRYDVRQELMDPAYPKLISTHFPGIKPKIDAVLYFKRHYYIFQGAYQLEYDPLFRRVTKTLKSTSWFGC

[5] = target: pseudolysin from P. aeruginosa (Pseudomonas aeruginosa, UniProt P14756)
Sequence of pseudolysin from P. aeruginosa (P14756 198-498): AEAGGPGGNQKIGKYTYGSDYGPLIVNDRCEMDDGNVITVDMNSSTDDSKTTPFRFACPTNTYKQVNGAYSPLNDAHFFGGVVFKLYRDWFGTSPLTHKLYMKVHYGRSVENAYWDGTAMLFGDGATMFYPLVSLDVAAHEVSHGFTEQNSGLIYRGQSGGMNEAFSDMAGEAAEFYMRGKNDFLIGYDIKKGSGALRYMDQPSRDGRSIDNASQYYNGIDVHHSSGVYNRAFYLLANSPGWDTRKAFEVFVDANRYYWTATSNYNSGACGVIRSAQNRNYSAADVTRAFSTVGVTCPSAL

multiple sclerosis = settings: clinical study, 943 patients with primary progressive MS

4-Abz-Gly-Pro-D-Leu-D-Ala-NH—OH [MMP Inhibitor I (FN-439)]
IC50 (MMP-3 [1]): 150000 nM
IC50 (MMP-1): 1000 nM
IC50 (MMP-8): 1000 nM
IC50 (MMP-9): 30000 nM

O=C(NCCCCN1CCOCC1)c1cc2ccccc2o1 [CL-82198]
inhibition of MMP-1 (MMP-1): Does not inhibit
inhibition of TACE (TACE): Does not inhibit
inhibition of MMP-9 (MMP-9): Does not inhibit
IC50 (MMP-13): 10000 nM

N=C(NCCCCCCNC(=N)NC(=N)Nc1ccc(Cl)cc1)NC(=N)Nc1ccc(Cl)cc1 [Chlorhexidine, Dihydrochloride]
inhibition of MMP-2 (MMP-2): Acts as a Zn2+-chelating inhibitor of MMP-2 and MMP-9.
inhibition of MMP-9 (MMP-9): Acts as a Zn2+-chelating inhibitor of MMP-2 and MMP-9.

CC(C)C[C@H](CC(=O)O)C(=O)N[C@@H](Cc1c[nH]c2ccccc12)C(=O)N[C@@H](C)c1ccccc1 [GM 1489]
Ki (MMP-3 [1]): 20000 nM
Ki (MMP-1): 0.2 nM
Ki (MMP-8): 100 nM
Ki (MMP-2): 500 nM
Ki (MMP-9): 100 nM

CNC(=O)C(CCc1ccccc1)NC(=O)C(CC(=O)NO)CC(C)C (centres unmarked) [MMP Inhibitor III]
IC50 (MMP-3 [1]): 135 nM
IC50 (MMP-1): 7.4 nM
IC50 (MMP-2): 2.3 nM
IC50 (MMP-13): 1 to 10 nM
IC50 (MMP-7): 10 to 100 nM

CCCCCCCC/C=C\CCCCCCCC(=O)NO [MMP-2 Inhibitor I (OA-Hy)]
Ki (MMP-2): 1700 nM

COC(=O)[C@H](Cc1ccccc1)NC(=O)Nc1nnc(S)s1 [MMP-2/MMP-3 Inhibitor I]
Ki (MMP-2): 17000 nM

CC(NC(=O)C(Cc1ccccc1)NC(=O)CCC(=O)NO)C(N)=O (centres unmarked) [MMP-2/MMP-9 Inhibitor IV, HONH—COCH2CH2CO-FA-NH2]
Ki (MMP-2): 13.9 nM
Ki (MMP-9): 600 nM

O=C(O)CCC(=NO)c1ccc2oc3ccccc3c2c1 [MMP-3 Inhibitor V, 4-Dibenzofuran-2′-yl-4-hydroximino-butyric Acid]
Ki values, human MMP-3 catalytic domain (MMP-3 [2]): the low μM range.
Ki values, rabbit MMP-3 catalytic domain [3]: the low μM range.

O=C(O)CCC(=NO)c1ccc(-c2ccccc2)cc1 [MMP-3 Inhibitor VI, 4-(4′-Biphenyl)-4-hydroxyimino-butyric Acid]
Ki values, human MMP-3 catalytic domain (MMP-3 [2]): the low μM range.
Ki values, rabbit MMP-3 catalytic domain [3]: the low μM range.

COc1ccc(S(=O)(=O)N(Cc2ccccc2)C(CC(C)C)C(=O)NO)cc1 (centres unmarked) [MMP-3 Inhibitor VIII]
Ki (MMP-3 [2]): 23 nM
IC50 [4]: 13 nM

O=S(=O)(CCC(S)CS)c1ccc(Oc2ccccc2)cc1 (centres unmarked) [compound 1, 4-(4-phenoxyphenylsulfonyl)butane-1,2-dithiol]
inhibition of MMP-2 (MMP-2): bind selectively and inhibit potently
inhibition of MMP-9 (MMP-9): bind selectively and inhibit potently

O=S(=O)(CCCC(S)CS)c1ccc(Oc2ccccc2)cc1 (centres unmarked) [compound 2, 5-(4-phenoxyphenylsulfonyl)pentane-1,2-dithiol]
inhibition of MMP-2 (MMP-2): bind selectively and inhibit potently
inhibition of MMP-9 (MMP-9): bind selectively and inhibit potently

H-Cys1-Thr-Thr-His-Trp-Gly-Phe-Thr-Leu-Cys10-OH (cyclic: 1 → 10) [MMP-2/MMP-9 Inhibitor III]
IC50 (MMP-2): 10000 nM

HONH—COCH2CH2CO-Phe-Ala-NH2 [MMP Inhibitor IV]
inhibition of pseudolysin from P. aeruginosa [5]: potently inhibits MMPs and

RCGVPD [MMP-3 Inhibitor I, Ac-Arg-Cys-Gly-Val-Pro-Asp-NH2]
IC50 (MMP-3 [1]): 5000 nM

glatiramer acetate
progression of disability and disease (multiple sclerosis): failed to halt the progression of disability and the disease
